Reference: PubChem BioAssay (NCI)
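Where inhibition never reached the appropriate level, the endpoint shown equals the highest concentration tested. Otherwise, values were interpolated linearly from a five-concentration, 48-hour dose response in 96-well plates. TGI: concentration producing complete growth inhibition.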

How the values were obtained:
Test in all cases: NCI anticancer screen, dose series, 48 h
786-0 renal = test system: 786-0 renal
A498 renal = test system: A498 renal
A549 NSCLC = test system: A549 NSCLC
ACHN renal = test system: ACHN renal
BT-549 breast = test system: BT-549 breast
CAKI-1 renal = test system: CAKI-1 renal
CCRF-CEM leukemia = test system: CCRF-CEM leukemia
COLO 205 colon = test system: COLO 205 colon
DU-145 prostate = test system: DU-145 prostate
EKVX NSCLC = test system: EKVX NSCLC
HCC-2998 colon = test system: HCC-2998 colon
HCT-116 colon = test system: HCT-116 colon
HCT-15 colon = test system: HCT-15 colon
HL-60(TB) leukemia = test system: HL-60(TB) leukemia
HOP-62 NSCLC = test system: HOP-62 NSCLC
HOP-92 NSCLC = test system: HOP-92 NSCLC
HS 578T breast = test system: HS 578T breast
HT29 colon = test system: HT29 colon
IGROV1 ovarian = test system: IGROV1 ovarian
K-562 leukemia = test system: K-562 leukemia
KM12 colon = test system: KM12 colon
LOX IMVI melanoma = test system: LOX IMVI melanoma
M14 melanoma = test system: M14 melanoma
MALME-3M melanoma = test system: MALME-3M melanoma
MCF7 breast = test system: MCF7 breast
MDA-MB-231 breast = test system: MDA-MB-231 breast
MDA-MB-435 = test system: MDA-MB-435
MDA-N = test system: MDA-N
MOLT-4 leukemia = test system: MOLT-4 leukemia
NCI-H226 lung = test system: NCI-H226 lung
NCI-H23 lung = test system: NCI-H23 lung
NCI-H460 lung = test system: NCI-H460 lung
NCI-H522 lung = test system: NCI-H522 lung
NCI/ADR-RES ovarian = test system: NCI/ADR-RES ovarian
OVCAR-3 ovarian = test system: OVCAR-3 ovarian
OVCAR-4 ovarian = test system: OVCAR-4 ovarian
OVCAR-5 ovarian = test system: OVCAR-5 ovarian
OVCAR-8 ovarian = test system: OVCAR-8 ovarian
PC-3 prostate = test system: PC-3 prostate
RPMI-8226 leukemia = test system: RPMI-8226 leukemia
RXF 393 renal = test system: RXF 393 renal
SF-268 CNS = test system: SF-268 CNS
SF-295 CNS = test system: SF-295 CNS
SF-539 CNS = test system: SF-539 CNS
SK-MEL-2 melanoma = test system: SK-MEL-2 melanoma
SK-MEL-28 melanoma = test system: SK-MEL-28 melanoma
SK-MEL-5 melanoma = test system: SK-MEL-5 melanoma
SK-OV-3 ovarian = test system: SK-OV-3 ovarian
SN12C renal = test system: SN12C renal
SNB-19 CNS = test system: SNB-19 CNS
SNB-75 CNS = test system: SNB-75 CNS
SR leukemia = test system: SR leukemia
SW-620 colon = test system: SW-620 colon
T-47D breast = test system: T-47D breast
TK-10 renal = test system: TK-10 renal
U251 CNS = test system: U251 CNS
UACC-257 melanoma = test system: UACC-257 melanoma
UACC-62 melanoma = test system: UACC-62 melanoma
UO-31 renal = test system: UO-31 renal

ClCc1nn(-c2ccccc2)c(CCl)c1CCl
TGI (786-0 renal): 8.77 µM | TGI (A498 renal): 24.5 µM | TGI (A549 NSCLC): 24.5 µM | TGI (ACHN renal): 7.62 µM | TGI (BT-549 breast): 18.3 µM | TGI (CAKI-1 renal): 20.6 µM | TGI (CCRF-CEM leukemia): 6.02 µM | TGI (COLO 205 colon): 8.95 µM | TGI (DU-145 prostate): 16.6 µM | TGI (EKVX NSCLC): 8.97 µM | TGI (HCC-2998 colon): 24.7 µM | TGI (HCT-116 colon): 7.54 µM | TGI (HCT-15 colon): 9.06 µM | TGI (HL-60(TB) leukemia): 6.78 µM | TGI (HOP-62 NSCLC): 33.8 µM | TGI (HOP-92 NSCLC): 9.85 µM | TGI (HS 578T breast): 58.3 µM | TGI (HT29 colon): 9.9 µM | TGI (IGROV1 ovarian): 18.2 µM | TGI (K-562 leukemia): 6.34 µM | TGI (KM12 colon): 11.9 µM | TGI (LOX IMVI melanoma): 4.29 µM | TGI (M14 melanoma): 10.3 µM | TGI (MALME-3M melanoma): 9.88 µM | TGI (MCF7 breast): 16 µM | TGI (MDA-MB-231 breast): 12.1 µM | TGI (MDA-MB-435): 6.6 µM | TGI (MDA-N): 8.88 µM | TGI (MOLT-4 leukemia): 6.76 µM | TGI (NCI-H226 lung): 13.9 µM | TGI (NCI-H23 lung): 14.3 µM | TGI (NCI-H460 lung): 12.5 µM | TGI (NCI-H522 lung): 10.2 µM | TGI (NCI/ADR-RES ovarian): > 100 µM | TGI (OVCAR-3 ovarian): 11 µM | TGI (OVCAR-4 ovarian): 7.61 µM | TGI (OVCAR-5 ovarian): 15.2 µM | TGI (OVCAR-8 ovarian): 6.17 µM | TGI (PC-3 prostate): 18.4 µM | TGI (RPMI-8226 leukemia): 7.18 µM | TGI (RXF 393 renal): 15.3 µM | TGI (SF-268 CNS): 17.4 µM | TGI (SF-295 CNS): 26.5 µM | TGI (SF-539 CNS): 6.34 µM | TGI (SK-MEL-2 melanoma): 15.5 µM | TGI (SK-MEL-28 melanoma): 12.4 µM | TGI (SK-MEL-5 melanoma): 8.43 µM | TGI (SK-OV-3 ovarian): 23.3 µM | TGI (SN12C renal): 11.1 µM | TGI (SNB-19 CNS): 19.9 µM | TGI (SNB-75 CNS): 11.4 µM | TGI (SR leukemia): 4.41 µM | TGI (SW-620 colon): 11.4 µM | TGI (T-47D breast): 16.4 µM | TGI (TK-10 renal): 21.3 µM | TGI (U251 CNS): 6.05 µM | TGI (UACC-257 melanoma): 25 µM | TGI (UACC-62 melanoma): 14.4 µM | TGI (UO-31 renal): 11.5 µM

c1ccc2c(c1)CN1CCCC1CN2 (stereo not drawn)
TGI (786-0 renal): > 100 µM | TGI (A498 renal): > 100 µM | TGI (A549 NSCLC): > 100 µM | TGI (ACHN renal): > 100 µM | TGI (BT-549 breast): > 100 µM | TGI (CAKI-1 renal): > 100 µM | TGI (CCRF-CEM leukemia): > 100 µM | TGI (COLO 205 colon): > 100 µM | TGI (DU-145 prostate): > 100 µM | TGI (EKVX NSCLC): > 100 µM | TGI (HCC-2998 colon): > 100 µM | TGI (HCT-116 colon): > 100 µM | TGI (HCT-15 colon): > 100 µM | TGI (HL-60(TB) leukemia): > 100 µM | TGI (HOP-62 NSCLC): > 100 µM | TGI (HOP-92 NSCLC): > 100 µM | TGI (HS 578T breast): > 100 µM | TGI (HT29 colon): > 100 µM | TGI (IGROV1 ovarian): > 100 µM | TGI (K-562 leukemia): > 100 µM | TGI (KM12 colon): > 100 µM | TGI (LOX IMVI melanoma): > 100 µM | TGI (M14 melanoma): > 100 µM | TGI (MALME-3M melanoma): > 100 µM | TGI (MCF7 breast): > 100 µM | TGI (MDA-MB-231 breast): > 100 µM | TGI (MDA-MB-435): > 100 µM | TGI (MDA-N): > 100 µM | TGI (MOLT-4 leukemia): > 100 µM | TGI (NCI-H226 lung): > 100 µM | TGI (NCI-H23 lung): > 100 µM | TGI (NCI-H460 lung): > 100 µM | TGI (NCI-H522 lung): > 100 µM | TGI (NCI/ADR-RES ovarian): > 100 µM | TGI (OVCAR-3 ovarian): > 100 µM | TGI (OVCAR-4 ovarian): > 100 µM | TGI (OVCAR-5 ovarian): > 100 µM | TGI (OVCAR-8 ovarian): > 100 µM | TGI (PC-3 prostate): > 100 µM | TGI (RPMI-8226 leukemia): > 100 µM | TGI (RXF 393 renal): > 100 µM | TGI (SF-268 CNS): > 100 µM | TGI (SF-295 CNS): > 100 µM | TGI (SF-539 CNS): > 100 µM | TGI (SK-MEL-2 melanoma): > 100 µM | TGI (SK-MEL-28 melanoma): > 100 µM | TGI (SK-MEL-5 melanoma): > 100 µM | TGI (SK-OV-3 ovarian): > 100 µM | TGI (SN12C renal): > 100 µM | TGI (SNB-19 CNS): > 100 µM | TGI (SNB-75 CNS): > 100 µM | TGI (SR leukemia): > 100 µM | TGI (SW-620 colon): > 100 µM | TGI (T-47D breast): > 100 µM | TGI (TK-10 renal): > 100 µM | TGI (U251 CNS): > 100 µM | TGI (UACC-257 melanoma): > 100 µM | TGI (UACC-62 melanoma): > 100 µM | TGI (UO-31 renal): > 100 µM
